# Test results published in US6331555A, “Treatment of platelet derived growth factor related disorders such as cancers” (priority 1999, dated 2001).
# Entries after “also recorded” stand apart in the source; their conditions may differ.
# Columns and labels:
# EGF receptor = EGF receptor autophosphorylation, T98G glioblastoma cells; type: cell-based, human; settings: 200, 500; 50 ng/ml EGF
# Procedure: Proteins were then separated by SDS-polyacrylamide gel electrophoresis (PAGE). Proteins containing phosphorylated tyrosine were identified by western blotting with an anti-phosphotyrosine antibody. The level of phosphorylated tyrosine was determined by quantitating the amount of bound anti-phosphotyrosine. Quantitation was carried out by peak area integration using a Molecular Dynamics Computing Densitometer (Model 300S), and Image Quant v3.0 software (Molecule Dynamics). Data were expressed as relative peak.intensity (phosphorylation of a receptor divided by the total amount of phosphorylated tyrosine).
# T98G cells were plated in MCDB105 medium containing 2% FBS and incubated for 24 hours at 37° C. […] The cells were then treated with ligand for 10 minutes (20 ng/ml PDGF-BB or 50 ng/ml EGF). The cells were lysed and the level of phosphorylated receptor was quantitated as described in Example 1.
# U87MG glioblastoma = experiment: SC xenograft in mice; type: in vivo, human
# Procedure: (§1) Cell lines were grown in appropriate medium (see Appendix 1). Cells were harvested at or near confluency with 0.05% Trypsin-EDTA and pelleted at 450×g for 10 min. Pellets were resuspended in sterile PBS or media (without FBS) to a particular concentration and the cells were implanted into the hindflank of mice. Tumor growth was measured over 3 to 6 weeks using venier calipers. Tumor volumes were calculated as a product of length×width×height unless otherwise indicated. P values were calculated using the Students' t-test.
# C6 and SKOV-3(T) cells were grown in culture, as described in "cell growth" above, and implanted into the hind flank of a female Balb/c nu/nu mouse at 3×10^6 cells (for C6 experiments), or 1×10^7 cells (for SKOV-3 experiments) in […] of PBS on Day 0. U87MG, U118MG or U373MG human glioblastoma cells (obtained from the ATCC), or A4312 were also implanted into athymic mice. […] Tumors were measured using venier calipers and tumor volume was calculated as a product of tumor length, width, and height.
# D1B leukemia = experiment: SC syngeneic leukemia model in mice; type: in vivo, murine; settings: DBA/2, 20 mg/kg/day, day 22
# Procedure: as §1
# [1] = test system: 7TD1 (B-cell hybridoma) cells; experiment: Survival, IP 7TD1 B-cell hybridoma in C57BL/6 mice; type: in vivo, mouse
# Procedure: Cell lines were grown in the appropriate media as described in Appendix 1. Cells were harvested and washed in sterile PBS or medium without FBS, resuspended to a suitable concentration, and injected into the IP cavity of […] of the appropriate strain. Prior to implantation of 7TD1 cells, C57BL/6 mice were primed by IP injection of 0.5 mL Pristane. SKOV3T cells were implanted into athymic mice without Pristane priming. Mice were observed daily for the occurrence of ascites formation. Individual animals were sacrificed when they presented with a weight gain of 40%, or when the IP tumor burden began to cause undue stress and pain to the animal.
# All animals in the control group died by day 9, while 3 of 8 animals in the A10-treated group survived past day 80.
# spleen cells = experiment: Normal immune function in mice bearing a primary tumor; type: in vivo, mouse; settings: 20 mg/kg/day
# Description: At the indicated times, animals were sacrificed, and the spleens were aseptically removed and placed into sterile medium. Spleens were processed into single cell suspensions by grinding between sterile frosted glass microscope slides. After a single wash to remove tissue debris, the spleen cells were resuspended in a hypotonic ammonium chloride buffer to lyse erythrocytes. Lymphocytes were washed and resuspended to the appropriate concentrations in complete medium, consisting of RPMI plus 10% heat-inactivated FBS, 2 mM glutamine, 50 μM β-mercaptoethanol, and penicillin-streptomycin. The responses of the lymphocytes were examined in the following assays according to accepted procedures (Current Protocols in Immunology. Coligan, J. E., Kruisbeek, A. M., Margulies, D. H., Shevach, E. M., Strober, W. (eds.) John Wiley and Sons, Inc., 1992).
# The T-cell mitogen, ConA, and the T-cell independent B-cell mitogen, LPS, were added to 96-well round-bottom wells at the indicated concentrations. Lymphocytes from normal, vehicle-dosed, and drug-dosed animals were added at a final concentration of 2.5×10^5 /well. Cultures were usually set up in triplicate or quadruplicate. The plates were incubated at 37° C. in a humidified atmosphere containing 5% CO2 for the indicated times. Supernatants (approximately 100 μL) were carefully removed from the wells and stored at -80° C. for lymphokine and immunoglobulin analyses. To measure proliferation of the lymphocytes, 1 μCi of ^3 H-thymidine was added to each well, and the plates were incubated for 6 hr. The cultures were harvested onto glass fiber filters, and the incorporated radioactivity was quantitated by liquid scintillation counting (Betaplate, Wallac).
# Lymphocytes from normal, vehicle-dosed, and drug-dosed animals were plated at 2.5×10^5 /well in round-bottom 96-well plates. Stimulator cells were then added at the same cell concentration. The stimulator cells consisted of syngeneic or allogeneic lymphocytes which had been treated with 50 μg/mL of mitomycin C for 30 min prior to the assay. The plates were incubated for 3 to 4 days, at which time supernatants were harvested and the cultures were pulsed as described for the mitogen assays.
# Supernatants from mitogen and MLR cultures were assayed for IL-2 and IL-6 content by the ability to support the growth of factor-dependent cell lines. HT-2 cells (10^4 /well, IL-2-dependent) and 7TD1 cells (2×10^3 /well, IL-6-dependent) were plated in 96-well flat-bottom plates, in 50 μL/well. Supernatants were added in 50 μL/well, and the plates were incubated overnight (HT-2) or four days (7TD1). Cellular proliferation was determined in the MTT colorimetric assay (Appendix 3.1).
# Flat bottom 96-well EIA plates were coated with goat anti-mouse Ig antibodies (Southern Biotechnology) overnight at 4° C. The plates were blocked by the addition of PBS+1% BSA. After washing with PBS, supernatants from murine mitogen and MLR cultures were added and incubated at room temperature for 1 hr. The plates were washed with PBS, then HRP-labeled goat anti-mouse Ig antibodies were added and incubated at room temperature for 1 hr. The plates were washed and developed by the addition of substrate (ABTS).
# BALB/c mice received SC implants of syngeneic WEHI-164.13 fibrosarcoma cells on day 0. […] On day 17, the animals were sacrificed and their spleens were removed. The spleen cells were assayed in vitro for responses to alloantigens and mitogens.
# [2] = test system: epidermal growth factor (EGF) receptor; settings: listed as leflunomide; cited from earlier work
smiles,measurement,setting,value
"Cc1oncc1C(=O)Nc1ccc(C(F)(F)F)cc1 [Compound A10, 5-methylisoxazole-4 carboxylic acid-(4-trifluromethyl)-anilide]",EGF stimulated autophosphorylation of EGF-R,EGF receptor,little if any effect on the ability of EGF to stimulate autophosphorylation of EGF-R
same,% Inhibition,U87MG glioblastoma; 5 mg/kg,52%
same,% Inhibition,U87MG glioblastoma; 10 mg/kg,58%
same,% Inhibition,U87MG glioblastoma; 15 mg/kg,66%
same,% Inhibition,U87MG glioblastoma; 20 mg/kg,92%
same,% Inhibition,D1B leukemia,95%
same,survival,[1]; 15 mg/kg/day IP in DMSO,significantly increase the survival
same,animals surviving,"[1]; 15 mg/kg/day IP in DMSO 30 days, past day 80",3 of 8
same,IL-2 production,spleen cells; Allo,0
same,IL-6 production,spleen cells; Allo,0
same,Ig production,spleen cells; Allo,0
same,IL-2 production,spleen cells; ConA,0
same,IL-6 production,spleen cells; ConA,0
same,Ig production,spleen cells; ConA,0
same,IL-2 production,spleen cells; LPS,0
same,IL-6 production,spleen cells; LPS,0
same,Ig production,spleen cells; LPS,0
same,IL-2 production,spleen cells; Tumor stimulus,0
same,IL-6 production,spleen cells; Tumor stimulus,0
same,Ig production,spleen cells; Tumor stimulus,0
same,autophosphorylation of the EGF receptor,[2],"dose dependently, inhibited; also recorded: inhibit EGF induced EGF receptor autophosphorylation"
